Patent publication US20210052473A1, “COMPOSITION FOR REMOVING ALDEHYDE-BASED ODORS AND REACTIVE OXYGEN SPECIES” (Osteon Co. Ltd., priority 2019, published 2021)

Experiment: Deodorization performance: anisidine value (p-AV) by ultraviolet spectrometry after reaction with 0.2% 2-nonenal isooctane standard solution
Settings: 20 ml 0.2% 2-nonenal isooctane solution (v/v) stirred 30 minutes with 20 ml composition; lower value = less aldehyde; Table 5
Experimental: At this time, 0.2% 2-nonenal isooctane solution (v/v) was used as a standard solution to determine the deodorizing performance. 2-Nonenal is a typical aldehyde compound generated by the oxidation of unsaturated fatty acids in human skin. […] The deodorizing performance of the deodorizing substances was determined by measuring the anisidine values (p-AV).

Structure (SMILES) | Anisidine value (p-AV)
O=S([O-])O.[Na+] [Comparative Example 1, Sodium bisulfite] | 33.28
O=S([O-])S(=O)(=O)[O-].[Li+].[Li+] [Comparative Example 7, Lithium metabisulfite] | 34.27
Nc1nc2nc[nH]c2c(=O)[nH]1 [Comparative Example 16, Guanine] | 38.45
O=S([O-])S(=O)(=O)[O-].[Na+].[Na+] [Comparative Example 4, Sodium metabisulfite] | 34.48
O=S([O-])S(=O)(=O)[O-].[Na+].[Na+] [Comparative Example 6, Sodium metabisulfite] | 35.36
Nc1ccnc(=O)[nH]1 [Comparative Example 13, Cytosine] | 37.21
NCCCC[C@H](N)C(=O)O [Comparative Example 17, Lysine] | 34.56
N=C(N)NCCC[C@H](N)C(=O)O [Comparative Example 18, Arginine] | 38.41
O=S([O-])S(=O)[O-].[Na+].[Na+] [Comparative Example 8, Sodium hydrosulfite] | 34.39
O=S([O-])S(=O)(=O)[O-].[K+].[K+] [Comparative Example 5, Potassium metabisulfite] | 33.10
N[C@@H](Cc1c[nH]cn1)C(=O)O [Comparative Example 19, Histidine] | 38.09
Cc1c[nH]c(=O)[nH]c1=O [Comparative Example 14, Thymine] | 36.54
Nc1ncnc2nc[nH]c12 [Comparative Example 15, Adenine] | 36.23
O=S([O-])S(=O)[O-].[K+].[K+] [Comparative Example 9, Potassium hydrosulfite] | 34.10
O=S([O-])O.[Li+] [Comparative Example 3, Lithium bisulfite] | 34.65
O=S([O-])O.[K+] [Comparative Example 2, Potassium bisulfite] | 33.23
O=S([O-])S(=O)[O-].[Li+].[Li+] [Comparative Example 10, Lithium hydrosulfite] | 33.98
